This is an account of results in patent US20250312499A1, “KISSPEPTIN RECEPTOR (KISS1R) TARGETED THERAPEUTICS AND USES THEREOF” (priority 2024, published 2025).

Numbered stars: 1 amine (or outer) side, 2 acyl side, 3 side chain; on linkers, the order of the positions; unused ones are H or OH. Square brackets hold non-standard residues; d marks the D form. Peptide text beside a SMILES is read from it. * marks the point of attachment. DOTA = O=C(O)CN1CCN(CC(=O)O)CCN(CC(=O)*)CCN(CC(=O)O)CC1; Gly(N-(3-F-4-Me-benzyl)) = Cc1ccc(CNCC(=O)*)cc1F; Phe(3-F) = N[C@@H](Cc1cccc(F)c1)C(=O)O; X1 = O=C(CN1CCC(N[*:1])CC1)[*:2]; d4Pal = N[C@H](Cc1ccncc1)C(=O)O; 4Amb = NCc1ccc(C(=O)O)cc1; Api = NC1(C(=O)O)CCNCC1; Ahx = NCCCCCC(=O)O; azaGly = NNC(=O)O

Sequence of human kisspeptin receptor (Q969F8 whole entry): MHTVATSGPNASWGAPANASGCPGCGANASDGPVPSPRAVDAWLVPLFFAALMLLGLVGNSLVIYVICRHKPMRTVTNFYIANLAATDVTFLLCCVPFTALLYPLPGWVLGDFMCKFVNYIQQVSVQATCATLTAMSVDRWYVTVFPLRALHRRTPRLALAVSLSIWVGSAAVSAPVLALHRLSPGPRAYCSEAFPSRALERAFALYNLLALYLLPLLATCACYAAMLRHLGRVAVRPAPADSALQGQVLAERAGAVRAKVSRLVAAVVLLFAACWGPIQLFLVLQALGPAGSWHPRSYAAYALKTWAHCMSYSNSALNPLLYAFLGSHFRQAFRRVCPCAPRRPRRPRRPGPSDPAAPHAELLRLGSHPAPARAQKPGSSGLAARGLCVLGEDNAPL

The target of the experiment is human kisspeptin receptor (Homo sapiens (Human), UniProt Q969F8). The experiment is described as follows: Human KISS1R binding assay (membrane competition binding). The settings on record: 90 min at room temperature; competition with 0.2 nM [125I]-metastin (45-54); Flp-In T-Rex 293 kisspeptin membranes; metal complexes nonradioactive Ga, In, Lu; read-out: hKiSSR Binding Ki (90 min). As for the experimental part:
Crude membrane fractions are prepared from Flp-In T-Rex 293 (Thermo Fisher) cell line expressing the human kisspeptin receptor. The cells are grown to 85-100% confluence on standard tissue culture dishes in Dulbecco's Modified Eagles Medium (DMEM) (Corning) supplemented with 10% FBS (Gemini), 1% penicillin-streptomycin-glutamine (Gibco), 500 μg/mL hygromycin, and 15 μg/mL blastacidin. 48 hrs prior to preparing membranes 10 μg/ml of tetracycline is added to the culture media to induce receptor expression. To prepare membranes, cells are scraped and collected in 1× Dulbecco's phosphate buffered saline (Corning) and then pelleted at 1000 RPMs. The cell pellet is reconstituted in membrane preparation buffer (20 mM HEPES, 6 mM MgCl2 and 1 mM EGTA, protease inhibitor tablets (Pierce), pH 7.4) and placed in a cell disruption vessel (Parr Instrument company) at 1000 PSI for 30 min on ice. The pressurized contents are then released and spun down at 1000 RPMs and the supernatant is collected and further centrifuged at 15,000 RPMs to pellet the membranes. The membrane pellet is resuspended in membrane preparation buffer, snap frozen and stored at −80° C. for later use.
The human kisspeptin membrane binding assay utilizes the following components: radiolabel [^125I]-metastin (45-54) (human) (Perkinhmer), crude Flp-In T-Rex 293 kisspeptin membranes, and competing small molecule and peptide ligands. The assay is initiated by combining in assay buffer (50 mM TrisHCl, 5 mM MgCl2, 2 mM EGTA, 10 mM CaCl2, 0.1% BSA, pH 7.4) a dose response of competing ligand (final concentrations are typically 0-10,000 nM), 5-10 μg of Flp-In T-Rex 293 kisspeptin membranes, and 0.2 n M [^125I]-metastin (45-54) in a 96-well assay plate and allowed to incubate 90 minutes at room temperature. Assay contents are then filtered through unifilter CF/C: microplates (PerkinElmer) pre-soaked with 0.5% BSA and washed with 9×400 μL of cold wash buffer (10 mM HEPES, 500 mM NaCl, 0.1% Tween-20, pH7.4). Assay plates are read using a Microbeta^2 (PerkinElmer) and Ki values for compounds are determined using a GraphPad Prism 9.3 non-linear regression analysis.
Take `Cc1ccc(CNCC(=O)N2CCC(NC(=O)[C@H](CC(C)C)NC(=O)NNC(=O)[C@H](Cc3ccccc3)NC(=O)[C@@H](CC(N)=O)NC(=O)CN3CCN(CC(=O)O)CCN(CC(=O)O)CCN(CC(=O)O)CC3)(C(=O)N[C@@H](Cc3c[nH]c4ccccc34)C(N)=O)CC2)cc1F` [Compound 21] ({DOTA}-[dN]F[azaGly]L[Api](Gly(N-(3-F-4-Me-benzyl)))W-NH2): the inhibitory constant (Ki) (commonly a dissociation constant, usually derived from enzyme kinetics or from competition with a known ligand) was in the range of 10 to 100 nM.

`Cc1ccc(CNCC(=O)N2CCC(NC(=O)[C@H](CC(C)C)NC(=O)NNC(=O)[C@H](Cc3ccccc3)NC(=O)c3ccc(CNC(=O)CCCCCNC(=O)CN4CCN(CC(=O)O)CCN(CC(=O)O)CCN(CC(=O)O)CC4)cc3)(C(=O)N[C@@H](Cc3c[nH]c4ccccc34)C(N)=O)CC2)cc1F` [Compound 22] ({DOTA-Ahx-4Amb}-F[azaGly]L[Api](Gly(N-(3-F-4-Me-benzyl)))W-NH2): the Ki is below 10 nM.

For the compound `Cc1ccc(CNCC(=O)N2CCC(NC(=O)[C@H](CC(C)C)NC(=O)NNC(=O)[C@H](Cc3ccccc3)NC(=O)[C@@H](NC(=O)[C@H](CC(N)=O)NC(=O)[C@@H](Cc3ccncc3)NC(=O)[C@@H](Cc3ccc(O)cc3)NC(=O)CN3CCN(CC(=O)O)CCN(CC(=O)O)CCN(CC(=O)O)CC3)[C@@H](C)O)(C(=O)N[C@@H](Cc3c[nH]c4ccccc34)C(N)=O)CC2)cc1F` [Compound 23] ({DOTA}-[dY][d4Pal]NTF[azaGly]L[Api](Gly(N-(3-F-4-Me-benzyl)))W-NH2), the Ki was below 10 nM.

Consider `Cc1ccc(CNCC(=O)N2CCC(NC(=O)[C@H](CC(C)C)NC(=O)NNC(=O)[C@H](Cc3cccc(F)c3)NC(=O)[C@@H](NC(=O)[C@H](CC(N)=O)NC(=O)[C@H](CCC(=O)O)NC(=O)[C@@H](Cc3ccc(O)cc3)NC(=O)CN3CCC(NC(=O)CN4CCN(CC(=O)O)CCN(CC(=O)O)CCN(CC(=O)O)CC4)CC3)[C@@H](C)O)(C(=O)N[C@@H](Cc3c[nH]c4ccccc34)C(N)=O)CC2)cc1F` [Compound 24] ({DOTA}-[X1][dY]ENT[Phe(3-F)][azaGly]L[Api](Gly(N-(3-F-4-Me-benzyl)))W-NH2), for which the Ki is below 10 nM.

On to `Cc1ccc(CNCC(=O)N2CCC(NC(=O)[C@H](CC(C)C)NC(=O)NNC(=O)[C@H](Cc3ccccc3)NC(=O)[C@@H](NC(=O)[C@H](CC(N)=O)NC(=O)CCCCCNC(=O)CN3CCN(CC(=O)O)CCN(CC(=O)O)CCN(CC(=O)O)CC3)[C@@H](C)O)(C(=O)N[C@@H](Cc3c[nH]c4ccccc34)C(N)=O)CC2)cc1F` [Compound 26] ({DOTA-Ahx}-NTF[azaGly]L[Api](Gly(N-(3-F-4-Me-benzyl)))W-NH2), for which the Ki was below 10 nM.

For `Cc1ccc(CNCC(=O)N2CCC(NC(=O)[C@H](CC(C)C)NC(=O)NNC(=O)[C@H](Cc3cccc(F)c3)NC(=O)[C@@H](NC(=O)[C@H](CC(N)=O)NC(=O)[C@H](CCCCN)NC(=O)[C@@H](Cc3ccc(O)cc3)NC(=O)CCCCCNC(=O)CN3CCN(CC(=O)O)CCN(CC(=O)O)CCN(CC(=O)O)CC3)[C@@H](C)O)(C(=O)N[C@@H](Cc3c[nH]c4ccccc34)C(N)=O)CC2)cc1F` [Compound 27] ({DOTA-Ahx}-[dY]KNT[Phe(3-F)][azaGly]L[Api](Gly(N-(3-F-4-Me-benzyl)))W-NH2), the Ki is below 10 nM.

For the compound `Cc1ccc(CNCC(=O)N2CCC(NC(=O)[C@H](CC(C)C)NC(=O)NNC(=O)[C@H](Cc3ccccc3)NC(=O)CN3CCC(NC(=O)CN4CCN(CC(=O)O)CCN(CC(=O)O)CCN(CC(=O)O)CC4)CC3)(C(=O)N[C@@H](Cc3c[nH]c4ccccc34)C(N)=O)CC2)cc1F` [Compound 28] ({DOTA}-[X1]F[azaGly]L[Api](Gly(N-(3-F-4-Me-benzyl)))W-NH2), the Ki was below 10 nM.

Consider `Cc1ccc(CNCC(=O)N2CCC(NC(=O)[C@H](CC(C)C)NC(=O)NNC(=O)[C@H](Cc3ccccc3)NC(=O)[C@@H](NC(=O)[C@H](CC(N)=O)NC(=O)[C@@H](Cc3ccncc3)NC(=O)[C@@H](Cc3ccc(O)cc3)NC(=O)CN3CCC(NC(=O)CN4CCN(CC(=O)O)CCN(CC(=O)O)CCN(CC(=O)O)CC4)CC3)[C@@H](C)O)(C(=O)N[C@@H](Cc3c[nH]c4ccccc34)C(N)=O)CC2)cc1F` [Compound 29] ({DOTA}-[X1][dY][d4Pal]NTF[azaGly]L[Api](Gly(N-(3-F-4-Me-benzyl)))W-NH2), for which the Ki was below 10 nM.

For `Cc1ccc(CNCC(=O)N2CCC(NC(=O)[C@H](CC(C)C)NC(=O)NNC(=O)[C@H](Cc3ccccc3)NC(=O)[C@@H](NC(=O)[C@H](CC(N)=O)NC(=O)[C@@H](Cc3c[nH]c4ccccc34)NC(=O)CCCCCNC(=O)CN3CCN(CC(=O)O)CCN(CC(=O)O)CCN(CC(=O)O)CC3)[C@@H](C)O)(C(=O)N[C@@H](Cc3c[nH]c4ccccc34)C(N)=O)CC2)cc1F` [Compound 30] ({DOTA-Ahx}-[dW]NTF[azaGly]L[Api](Gly(N-(3-F-4-Me-benzyl)))W-NH2), the Ki was below 10 nM.

For `Cc1ccc(CNCC(=O)N2CCC(NC(=O)[C@H](CC(C)C)NC(=O)NNC(=O)[C@H](Cc3ccccc3)NC(=O)[C@@H](NC(=O)[C@H](CC(N)=O)NC(=O)[C@@H](Cc3ccncc3)NC(=O)[C@@H](Cc3ccc(O)cc3)NC(=O)CCCCCNC(=O)CN3CCN(CC(=O)O)CCN(CC(=O)O)CCN(CC(=O)O)CC3)[C@@H](C)O)(C(=O)N[C@@H](Cc3c[nH]c4ccccc34)C(N)=O)CC2)cc1F` [Compound 31] ({DOTA-Ahx}-[dY][d4Pal]NTF[azaGly]L[Api](Gly(N-(3-F-4-Me-benzyl)))W-NH2), the Ki was below 10 nM.

For `Cc1ccc(CNCC(=O)N2CCC(NC(=O)[C@H](CC(C)C)NC(=O)NNC(=O)[C@H](Cc3ccccc3)NC(=O)[C@@H](NC(=O)[C@H](CC(N)=O)NC(=O)[C@@H](Cc3c[nH]c4ccccc34)NC(=O)[C@@H](Cc3c[nH]cn3)NC(=O)[C@@H](Cc3ccc(O)cc3)NC(=O)CCCCCNC(=O)CN3CCN(CC(=O)O)CCN(CC(=O)O)CCN(CC(=O)O)CC3)[C@@H](C)O)(C(=O)N[C@@H](Cc3c[nH]c4ccccc34)C(N)=O)CC2)cc1F` [Compound 32] ({DOTA-Ahx}-[dY][dH][dW]NTF[azaGly]L[Api](Gly(N-(3-F-4-Me-benzyl)))W-NH2), the Ki was below 10 nM.

Turning to `Cc1ccc(CNCC(=O)N2CCC(NC(=O)[C@H](CC(C)C)NC(=O)NNC(=O)[C@H](Cc3ccccc3)NC(=O)[C@@H](NC(=O)[C@H](CC(N)=O)NC(=O)[C@@H](Cc3c[nH]c4ccccc34)NC(=O)[C@@H](Cc3c[nH]cn3)NC(=O)[C@@H](Cc3ccc(O)cc3)NC(=O)CN3CCC(NC(=O)CN4CCN(CC(=O)O)CCN(CC(=O)O)CCN(CC(=O)O)CC4)CC3)[C@@H](C)O)(C(=O)N[C@@H](Cc3c[nH]c4ccccc34)C(N)=O)CC2)cc1F` [Compound 33] ({DOTA}-[X1][dY][dH][dW]NTF[azaGly]L[Api](Gly(N-(3-F-4-Me-benzyl)))W-NH2), the inhibitory constant (Ki) is below 10 nM.

In the case of `Cc1ccc(CNCC(=O)N2CCC(NC(=O)[C@H](CC(C)C)NC(=O)NNC(=O)[C@H](Cc3cccc(F)c3)NC(=O)[C@@H](NC(=O)[C@H](CC(N)=O)NC(=O)[C@H](Cc3c[nH]c4ccccc34)NC(=O)[C@@H](Cc3ccc(O)cc3)NC(=O)CCCCCNC(=O)CN3CCN(CC(=O)O)CCN(CC(=O)O)CCN(CC(=O)O)CC3)[C@@H](C)O)(C(=O)N[C@@H](Cc3c[nH]c4ccccc34)C(N)=O)CC2)cc1F` [Compound 35] ({DOTA-Ahx}-[dY]WNT[Phe(3-F)][azaGly]L[Api](Gly(N-(3-F-4-Me-benzyl)))W-NH2), the Ki was below 10 nM.
